# Assay results: patent US7947851B2, “1,1′-(1,2-ethynediyl)bis-benzene derivatives as PTP 1-B inhibitors” (Merck Serono SA, priority 2004, dated 2011)
# Where a name gives a salt, the structure may show the parent alone. Read-outs that look alike come from different tables or passages of the source.
# Experiments:
# db/db mice = assay: In vivo assay in db/db mice (postprandial glycemia); conditions: 30 mg/kg per os, 4 hrs after drug administration, percentage of control (group 1: vehicle treated mice)
# Experimental: The following assay aims at determining the anti-diabetic effect of the test compounds of formula (I) in a model of postprandial glycemia in db/db mice, in vivo.
# The assay was performed as follows:
# A total of 18 db/db mice (about 8-9 weeks; obtained from IFFACREDO, l'Arbreste, France) were fasted during 20 hours.
# 2 groups, each consisting of 6 animals were formed: • Group 1: The animals were administered (per os) a dose of 10 mL/kg of vehicle (control). • Group 2: The animals were administered (per os) a dose of 30 mg/kg of the test compound according to formula (I) solubilized in the vehicle.
# After oral administration of the compounds of formula (I) solubilized or suspended in CarboxyMethylCellulose (0.5%), Tween 20 (0.25%) and water as vehicle, the animals had access to conmnercial food (D04, UAR, Villeinoisson/Orge, France) ad libitum. The diabetic state of the mice was verified by determining the blood glucose level before drug administration. Blood glucose and serum insulin levels were then determined 4 hrs after drug administration.
# The determination of the blood glucose level was performed using a glucometer (Precision Q.I.D., Medisense, Abbot, ref. 212.62.31).
# The determination of the Insulin level was performed using an ELISA kit (Crystal CHEM, Ref. INSK R020).
# Changes in blood glucose and serum insulin of drug treated mice were expressed as a percentage of control (group 1: vehicle treated mice).
# GLEPP-1 = target: T1, GLEPP-1 (Homo sapiens, UniProt Q16827); assay: PTP Enzyme Assay (DiFMUP), GLEPP-1; format: biochemical
# T1 construct: using the catalytic core of a human recombinant PTP as the enzyme; made in house
# T1 sequence (Q16827 938-1195 limits assumed): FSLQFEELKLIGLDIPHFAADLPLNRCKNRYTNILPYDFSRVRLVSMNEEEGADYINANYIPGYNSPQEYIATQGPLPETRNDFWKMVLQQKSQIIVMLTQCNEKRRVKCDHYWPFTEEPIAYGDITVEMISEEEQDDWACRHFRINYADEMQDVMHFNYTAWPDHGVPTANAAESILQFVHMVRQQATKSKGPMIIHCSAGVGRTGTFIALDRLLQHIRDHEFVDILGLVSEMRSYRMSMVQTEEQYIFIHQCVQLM
# Description: The PTP Enzyme Assay aims at determining the extent of inhibition of PTP's, e.g. of PTP1B, SEP-1, SHP-2, GLEPP-1 or PTP-H1 in the presence of a test compound of lo formula (I).
# (§1) The DiFMUP assay allows to follow the dephosphorylation of DiFMUP (6,8-DiFluoro-4-MethylUmbelliferyl Phosphate)—which is the PTP substrate—mediated by PTP into its stable hydrolysis product, i.e. DiFMU (6,8-difluoro-7-hydroxy coumarin). Due to its rather low pKa and its high quantum yield, DiFMU allows to measure both acidic and alkaline phosphatase activities with a great sensitivity.
# (§2) Compounds to be tested were dissolved in 100% DMSO at a concentration of 2 mM. Subsequent dilutions of the test compounds (to yield a concentration of 100, 30, 10, 3, 1,0.3, 0.1, 0.03, 0.01, 0.001 μM) were performed in 60% DMSO manually. 8 μl of diluted compound or vehicle (60% DMSO=control) was distributed to a black Costar 96 well plate. 42 μl of human recombinant PTP enzyme diluted in assay buffer (20 mM Tris HCl pH 7.5, 0.01% IGEPAL CA-630, 0.1 mM ethylenediaminetetracetic acid, 1 mM DL-Dithiothreitol) can be added to the dilutions of compound or vehicule (distributed to a black Costar 96-well plate), followed by 50 μl of DiFMUP diluted in the assay buffer. The reaction ran for 30 minutes at room temperature before reading the fluorescence intensity (integral or intensity) on a Perkin-Elmer Victor 2 spectrofluorimeter (excitation of 6,8-difluoro-7-hydroxy coumarin is at 355 nm, the emission at 460 nm, for 0.1 s). The percentage of inhibition is determined by measuring the relative fluorescence ion absence of a test compound (PTP inhibitor), i.e. with the solvent alone (5% DMSO). The IC50 values for inhibition were determined in triplicates.
# SHP-2 = target: T2, SHP-2 (Homo sapiens, UniProt Q06124); assay: PTP Enzyme Assay (DiFMUP), SHP-2; format: biochemical; conditions: 20 μM DiFMUP, catalytic core of human recombinant PTP; read-out: IC50 value in respect of SHP-2
# T2 construct: using the catalytic core of a human recombinant PTP as the enzyme; made in house
# T2 sequence (Q06124 247-517 limits assumed): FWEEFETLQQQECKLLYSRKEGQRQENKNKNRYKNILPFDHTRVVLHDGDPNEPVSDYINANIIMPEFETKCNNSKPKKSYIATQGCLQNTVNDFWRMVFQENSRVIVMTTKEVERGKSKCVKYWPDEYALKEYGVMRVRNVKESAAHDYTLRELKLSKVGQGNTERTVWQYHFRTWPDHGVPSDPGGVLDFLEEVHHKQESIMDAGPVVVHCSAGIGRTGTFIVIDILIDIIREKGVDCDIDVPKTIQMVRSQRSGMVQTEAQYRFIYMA
# Experimental: (§3) The PTP Enzyme Assay aims at determining the extent of inhibition of PTP's, e.g. of PTP1B, SEP-1, SHP-2, GLEPP-1 or PTP-H1 in the presence of a test compound of lo formula (I). The inhibition is illustrated by IC50 values which denote the concentration of test compound necessary to achieve an inhibition of 50% of said PTP's using the following concentration of the PTP substrate DiFMUP: • 5 μM DiFMUP for PTP1B and PTP-H1; • 20 μM DiFMUP for SHP-1 and SHP-2; • 30 μM DiFMUP for GLEPP-1. a) PTPs Cloning […]
# (§4) Assays were performed in a 96 well plate format, using the catalytic core of a human recombinant PTP as the enzyme and 6,8-DiFluoro-4-MethylUmbelliferyl Phosphate (DiFMUP, Molecular Probes, D-6567) as a substrate. […] The reaction ran for 30 minutes at room temperature before reading the fluorescence intensity (integral or intensity) on a Perkin-Elmer Victor 2 spectrofluorimeter (excitation of 6,8-difluoro-7-hydroxy coumarin is at 355 nm, the emission at 460 nm, for 0.1 s). The percentage of inhibition is determined by measuring the relative fluorescence ion absence of a test compound (PTP inhibitor), i.e. with the solvent alone (5% DMSO). The IC50 values for inhibition were determined in triplicates.
# PTP1B = target: T3, PTP1B (Homo sapiens, UniProt P18031); assay: PTP Enzyme Assay (DiFMUP), PTP1B; format: biochemical; conditions: 5 μM DiFMUP, catalytic core of human recombinant PTP; read-out: IC50 value in respect of PTP1B
# T3 construct: using the catalytic core of a human recombinant PTP as the enzyme; made in house
# T3 sequence (P18031 3-277 limits assumed): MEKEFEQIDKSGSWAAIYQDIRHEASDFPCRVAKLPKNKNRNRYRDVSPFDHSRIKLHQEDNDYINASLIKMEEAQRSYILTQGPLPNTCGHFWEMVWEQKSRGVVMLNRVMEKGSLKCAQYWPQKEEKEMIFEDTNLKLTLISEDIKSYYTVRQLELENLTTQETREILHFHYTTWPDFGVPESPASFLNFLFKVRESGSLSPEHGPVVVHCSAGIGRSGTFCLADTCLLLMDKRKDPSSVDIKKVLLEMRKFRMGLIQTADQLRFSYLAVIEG
# Experimental: The PTP Enzyme Assay aims at determining the extent of inhibition of PTP's, e.g. of PTP1B, SEP-1, SHP-2, GLEPP-1 or PTP-H1 in the presence of a test compound of lo formula (I). The inhibition is illustrated by IC50 values which denote the concentration of test compound necessary to achieve an inhibition of 50% of said PTP's using the following concentration of the PTP substrate DiFMUP: • 5 μM DiFMUP for PTP1B and PTP-H1; • 20 μM DiFMUP for SHP-1 and SHP-2; • 30 μM DiFMUP for GLEPP-1. a) PTPs Cloning
# The cloning and expression of the catalytic domain e.g. of PTP1B, may be performed as described in J. Biol. Chem. 2000, 275(13), pp 9792-9796.
# as §1
# as §2, with “Assays were performed in a 96 well plate format, using the catalytic core of a human recombinant PTP as the enzyme and 6,8-DiFluoro-4-MethylUmbelliferyl Phosphate (DiFMUP, Molecular Probes, D-6567) as a substrate. Compounds” for “Compounds”, “42 μl of human recombinant PTP enzyme diluted in assay buffer (20 mM Tris HCl pH 7.5, 0.01% IGEPAL CA-630, 0.1 mM ethylenediaminetetracetic acid, 1 mM DL-Dithiothreitol) can be added to the dilutions of compound or vehicule (distributed to a black Costar 96-well plate), followed by 50 μl of DiFMUP diluted in the assay buffer.” left out
# PTP-H1 = target: T4, PTP-H1 (Homo sapiens, UniProt P26045); assay: PTP Enzyme Assay (DiFMUP), PTP-H1; format: biochemical; conditions: 5 μM DiFMUP, catalytic core of human recombinant PTP; read-out: IC50 value in respect of PTP-H1
# T4 construct: using the catalytic core of a human recombinant PTP as the enzyme; made in house
# T4 sequence (P26045 646-901 limits assumed): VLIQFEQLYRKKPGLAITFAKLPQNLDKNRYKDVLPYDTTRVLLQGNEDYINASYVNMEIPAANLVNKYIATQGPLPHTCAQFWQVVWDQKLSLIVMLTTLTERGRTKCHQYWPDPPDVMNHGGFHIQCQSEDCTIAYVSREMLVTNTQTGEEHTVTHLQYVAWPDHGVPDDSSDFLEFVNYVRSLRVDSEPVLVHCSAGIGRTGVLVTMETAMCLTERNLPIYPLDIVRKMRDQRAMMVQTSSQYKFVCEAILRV
# Experimental: as §3, §4
# SHP-1 = target: T5, SHP-1 (Homo sapiens, UniProt P29350); assay: PTP Enzyme Assay (DiFMUP), SHP-1; format: biochemical; conditions: 20 μM DiFMUP, catalytic core of human recombinant PTP; read-out: IC50 value in respect of SHP-1
# T5 construct: using the catalytic core of a human recombinant PTP as the enzyme; made in house
# T5 sequence (P29350 244-515 limits assumed): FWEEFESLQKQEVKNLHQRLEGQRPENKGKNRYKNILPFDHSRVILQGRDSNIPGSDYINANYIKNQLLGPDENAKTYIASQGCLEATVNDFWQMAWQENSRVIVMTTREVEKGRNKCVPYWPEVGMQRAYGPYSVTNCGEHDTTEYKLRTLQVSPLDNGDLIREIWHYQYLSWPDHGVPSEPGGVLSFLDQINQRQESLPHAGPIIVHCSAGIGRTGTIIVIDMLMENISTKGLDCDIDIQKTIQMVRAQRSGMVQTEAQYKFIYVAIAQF
# Experimental: as §3, §4
# [1] = 30 μM DiFMUP, catalytic core of human recombinant PTP, read-out: IC50 value in respect of GLEPP-1
IC50 (GLEPP-1; [1]),IC50 (PTP1B),Molecule,Decrease in blood glucose (db/db mice),Decrease in serum insulin (db/db mice),other results
,,5-[(1-{4-[(4-butylphenyl)ethynyl]phenyl}pentyl)oxy]-2-hydroxybenzoic acid [Example 16],37%,28%,
620 nM,510 nM,"CCCCc1ccc(C#Cc2ccc(CN(Cc3ccc(OCC(=O)O)cc3)S(=O)(=O)/C=C/c3ccccc3)cc2)cc1 [Example 8, {4-[({4-[(4-butylphenyl)ethynyl]benzyl}{[(E)-2-phenylvinyl]sulfonyl}-amino)methyl]phenoxy}acetic acid]",,,IC50 (SHP-2): 800 nM; IC50 (PTP-H1): 9.64 µM; IC50 (SHP-1): 820 nM
,,"CCCCCCN(Cc1ccc(C#Cc2ccc(CCCC)cc2)cc1)C(=O)c1ccc(O)c(C(=O)O)c1 [Example 19, 5-[{{4-[(4-butylphenyl)ethynyl]benzyl}(hexyl)amino]carbonyl}-2-hydroxybenzoic acid, N-methyl-D-glucamine (i.e. 1-deoxy-1-(methylamino)-glucitol) salt]",20%,43%,
210 nM,80 nM,"CCCCc1ccc(C#Cc2ccc(CN(CCC(C)(C)C)c3ccc(F)c(C(=O)O)c3)cc2)cc1 [Example 35, 5-[{4-[(4-butylphenyl)ethynylbenzyl}(3,3-dimethylbutyl)amino]-2-fluorobenzoic acid, N-methyl-D-glucamine (i.e. 1-deoxy-1-(methylamino)glucitol)salt]",,,
,,"CCCCCCN(C(=O)c1ccc(C#Cc2ccc(CCCC)cc2)cc1)c1ccc(F)c(C(=O)O)c1 [Example 55, 5-[{4-[(4-butylphenyl)ethynyl]benzoyl}(hexyl)amino]-2-fluorobenzoic acid, N-methyl-D-glucamine (i.e. 1-deoxy-1-(methylamino)glucitol)salt]",46%,75%,

Molecule,IC50 (GLEPP-1; [1]),IC50 (PTP1B),Decrease in blood glucose (db/db mice),Decrease in serum insulin (db/db mice),other results
"CCCCCCN(Cc1ccc(C#Cc2ccccc2)cc1)c1ccc(F)c(C(=O)O)c1 [Example 30, 2-fluoro-5-{hexyl[4-(phenylethynyl)benzyl]amino}benzoic acid, N-methyl-D-glucamine (i.e. 1-deoxy-1-(methylamino)glucitol) salt]",,800 nM,,,IC50 (GLEPP-1): 860 nM
